Measured values as given in ChEMBL document CHEMBL1201862, “PubChem BioAssay data set” (2004).
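Where inhibition never reached the appropriate level, the endpoint shown equals the highest concentration tested. Otherwise, values were interpolated linearly from a five-concentration, 48-hour dose response in 96-well plates. Here, GI50 denotes the concentration required for 50% inhibition of growth.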 Activity calls are given as the source filed them. Cut-off read from the data, not from the text of the source: active = GI50 up to about 1.1 µM and inactive = higher.

Columns and labels:
Assay in all cases: NCI tumour cell line growth inhibition, 48 h
A498 = test system: A498
A549 = test system: A549
ACHN = test system: ACHN
CAKI-1 = test system: CAKI-1
CCRF-CEM = test system: CCRF-CEM
COLO 205 = test system: COLO 205
DLD-1 = test system: DLD-1
DMS-273 = test system: DMS-273
EKVX = test system: EKVX
HCC 2998 = test system: HCC 2998
HCT-15 = test system: HCT-15
HL-60 = test system: HL-60
HOP-18 = test system: HOP-18
HT-29 = test system: HT-29
IGROV-1 = test system: IGROV-1
K562 = test system: K562
KM-20L2 = test system: KM-20L2
KM12 = test system: KM12
LOX IMVI = test system: LOX IMVI
LXFL 529 = test system: LXFL 529
M19-MEL = test system: M19-MEL
MOLT-4 = test system: MOLT-4
Malme-3M = test system: Malme-3M
NCI-H226 = test system: NCI-H226
NCI-H23 = test system: NCI-H23
NCI-H460 = test system: NCI-H460
NCI-H522 = test system: NCI-H522
OVCAR-3 = test system: OVCAR-3
OVCAR-4 = test system: OVCAR-4
OVCAR-5 = test system: OVCAR-5
OVCAR-8 = test system: OVCAR-8
RPMI-8226 = test system: RPMI-8226
RXF 393 = test system: RXF 393
SF-268 = test system: SF-268
SF-295 = test system: SF-295
SK-MEL-28 = test system: SK-MEL-28
SK-MEL-2 = test system: SK-MEL-2
SK-MEL-5 = test system: SK-MEL-5
SK-OV-3 = test system: SK-OV-3
SN12C = test system: SN12C
SNB-19 = test system: SNB-19
SNB-75 = test system: SNB-75
SNB-78 = test system: SNB-78
SW-620 = test system: SW-620
TK-10 = test system: TK-10
U-251 = test system: U-251
UACC-257 = test system: UACC-257
UACC-62 = test system: UACC-62
UO-31 = test system: UO-31
XF498 = test system: XF498

O=C1OC(c2ccc(Cl)cc2)(c2ccc(Cl)cc2)c2c1ccc1ccccc21
GI50 (A498): > 100 µM (inactive) | GI50 (A549): > 100 µM (inactive) | GI50 (ACHN): > 100 µM (inactive) | GI50 (CAKI-1): > 100 µM (inactive) | GI50 (CCRF-CEM): > 100 µM (inactive) | GI50 (COLO 205): > 100 µM (inactive) | GI50 (DLD-1): > 100 µM (inactive) | GI50 (DMS-273): > 100 µM (inactive) | GI50 (EKVX): > 100 µM (inactive) | GI50 (HCC 2998): > 100 µM (inactive) | GI50 (HCT-15): > 100 µM | GI50 (HL-60): 8.69 µM (inactive) | GI50 (HOP-18): > 100 µM (inactive) | GI50 (HT-29): > 100 µM (inactive) | GI50 (IGROV-1): > 100 µM (inactive) | GI50 (K562): 54.5 µM (inactive) | GI50 (KM-20L2): > 100 µM (inactive) | GI50 (KM12): > 100 µM (inactive) | GI50 (LOX IMVI): > 100 µM (inactive) | GI50 (LXFL 529): > 100 µM (inactive) | GI50 (M19-MEL): > 100 µM (inactive) | GI50 (MOLT-4): 39.4 µM (inactive) | GI50 (Malme-3M): > 100 µM (inactive) | GI50 (NCI-H226): 71.4 µM (inactive) | GI50 (NCI-H23): 8.67 µM (inactive) | GI50 (NCI-H460): > 100 µM (inactive) | GI50 (NCI-H522): 44.4 µM (inactive) | GI50 (OVCAR-3): > 100 µM (inactive) | GI50 (OVCAR-4): > 100 µM (inactive) | GI50 (OVCAR-5): > 100 µM (inactive) | GI50 (OVCAR-8): > 100 µM (inactive) | GI50 (RPMI-8226): 5.94 µM (inactive) | GI50 (RXF 393): 20.9 µM (inactive) | GI50 (SF-268): > 100 µM (inactive) | GI50 (SF-295): > 100 µM (inactive) | GI50 (SK-MEL-28): > 100 µM (inactive) | GI50 (SK-MEL-2): > 100 µM (inactive) | GI50 (SK-MEL-5): 52.5 µM (inactive) | GI50 (SK-OV-3): > 100 µM (inactive) | GI50 (SN12C): > 100 µM (inactive) | GI50 (SNB-19): > 100 µM (inactive) | GI50 (SNB-75): 36.7 µM (inactive) | GI50 (SNB-78): > 100 µM (inactive) | GI50 (SW-620): > 100 µM (inactive) | GI50 (TK-10): > 100 µM (inactive) | GI50 (U-251): > 100 µM (inactive) | GI50 (UACC-257): > 100 µM (inactive) | GI50 (UACC-62): > 100 µM (inactive) | GI50 (UO-31): 92.3 µM (inactive) | GI50 (XF498): > 100 µM (inactive)
